Results published in US4576947A, “Pharmaceutical compositions” (Hoechst Aktiengesellschaft, priority 1972, dated 1986).

What was measured:
[1] = Toxicity in mg/kg (mouse); details: in vivo
[2] = tested on: cerebral blood flow of cats; test: Investigation of cerebral blood flow of cats (heat-conducting thermoprobe according to Hensel); type: in vivo; details: for Change of blood perfusion half-value time: action time; for Change of blood perfusion Δ λ: heat transfer factor λ
Procedure: The test animals are cats under chloralose urethane narcosis (70+200 mg/kg i.p.). The top of the skull is opened in the area of the frontal gyrus marginalis or suprasylvicus. […] The action time is given as the half value time and the intensity of action is determined according to Golenhofen et al. as a heat transfer factor λ. The recording was performed with thermoprobes using a two-channel Pluvograph of Hartmann & Braun, Frankfurt am Main, Germany. Other circulation parameters recorded at the same time were fed to a Hellige multi-channel recorder.

[3] = background statement, in words; cited from earlier work
[4] = tested on: rate of blood circulation; details: background statement, in words; cited from earlier work
cerebral blood flow = test: Cerebral blood flow, statements in the description; type: in vivo; details: in words

SMILES	LD50 ([1]; ip)	Change of blood perfusion half-value time ([2]; 5 mg/kg i.v.)	Change of blood perfusion Δ λ ([2]; 5 mg/kg i.v.)	water solubility and/or toxicity versus theobromine, theophylline and trialkylxanthines [3]	pharmacological activity [4]	Change of blood perfusion half-value time ([2]; 10 mg/kg i.v.)	Change of blood perfusion Δ λ ([2]; 10 mg/kg i.v.)	Change of blood perfusion half-value time ([2]; 50 mg/kg i.v.)	Change of blood perfusion Δ λ ([2]; 50 mg/kg i.v.)	Change of blood perfusion half-value time ([2]; 100 mg/kg i.v.)	Change of blood perfusion Δ λ ([2]; 100 mg/kg i.v.)	also measured
CC(O)CCCCn1cnc2c1c(=O)n(C)c(=O)n2C (stereo not shown) [1,3-dimethyl-7-(5-hydroxyhexyl)-xanthine]	250 to 500 mg/kg	1.8 min	+0.18									
CC(O)CCCCCn1cnc2c1c(=O)n(C)c(=O)n2C (stereo not shown) [1,3-dimethyl-7-(6-hydroxyheptyl)-xanthine]	250 to 500 mg/kg	1.8 min	+1.17									Change of blood perfusion half-value time ([2]; 1 mg/kg i.v.): 0.6 min; Change of blood perfusion Δ λ ([2]; 1 mg/kg i.v.): +0.70; Change of blood perfusion half-value time ([2]; 2 mg/kg i.v.): 1.2 min; Change of blood perfusion Δ λ ([2]; 2 mg/kg i.v.): +0.42
CC(O)Cn1c(=O)c2c(ncn2C)n(C)c1=O (stereo not shown) [1-(2-hydroxypropyl)-3,7-dimethylxanthine]		0.50 min	-0.25	greater degree of water solubility and/or lower toxicity than theobromine,theophylline and trialkylxanthines	reduced pharmacological activity	1.50 min	-0.50	17.5 min	-5.25	6.5 min	-10.00	
CC(O)CCCCn1c(=O)c2c(ncn2C)n(C)c1=O (stereo not shown) [1-(5-hydroxyhexyl)-3,7-dimethylxanthine]		5.0 min	+1.55			3.5 min	+2.65					LD50 ([1]; iv): 195 mg/kg; Change of blood perfusion half-value time ([2]; 3 mg/kg i.v.): 4.3 min; Change of blood perfusion Δ λ ([2]; 3 mg/kg i.v.): +1.80
Cn1c(=O)c2c(ncn2CC(O)CO)n(C)c1=O (stereo not shown) [7-(2,3-dihydroxypropyl)-1,3-dimethylxanthine]				greater degree of water solubility and/or lower toxicity than theobromine,theophylline and trialkylxanthines	reduced pharmacological activity	1.7 min		3.0 min	+0.20	3.0 min	-0.05	Change of blood perfusion half-value time ([2]; 25 mg/kg i.v.): 6.0 min; Change of blood perfusion Δ λ ([2]; 25 mg/kg i.v.): -0.23
CC(O)Cn1cnc2c1c(=O)n(C)c(=O)n2C (stereo not shown) [7-(2-Hydroxypropyl)-1,3-dimethyl-xanthine]				greater degree of water solubility and/or lower toxicity than theobromine,theophylline and trialkylxanthines	reduced pharmacological activity							
Cn1c(=O)c2c(ncn2CCO)n(C)c1=O [7-(2-hydroxyethyl)-1,3-dimethylxanthine]		0.23 min	-0.50			0.50 min	-1.33	7.17 min	-5.33	8.00 min	-6.00	Change of blood perfusion half-value time ([2]; 25 mg/kg i.v.): 6.73 min; Change of blood perfusion Δ λ ([2]; 25 mg/kg i.v.): -2.17
Cn1c(=O)c2[nH]cnc2n(C)c1=O.NCCN [theophylline-ethylenediamine, 1,3-dimethylxanthine-ethylene-diamine]	217 mg/kg	3.3 min	+0.18			1.7 min	+0.53					action on cerebral blood flow (cerebral blood flow): increases the cerebral blood flow, but only to a limited extent and only for a short time; Change of blood perfusion half-value time ([2]; 1 mg/kg i.v.): 1.8 min; Change of blood perfusion Δ λ ([2]; 1 mg/kg i.v.): +0.19; Change of blood perfusion half-value time ([2]; 2 mg/kg i.v.): 1.8 min; Change of blood perfusion Δ λ ([2]; 2 mg/kg i.v.): +0.15
